In brackets after ≈: the same amount, converted by molar mass. Entries after “also recorded” stand apart in the source; their conditions may differ. Like-named read-outs stand apart in the source and are kept apart here.
How the values were obtained:
[1] = cited from earlier work
[2] = Lactone form / chemical stability in formulation; format: physicochemical
[3] = oral vs intravenous solution; cited from earlier work
[4] = tested on: Topoisomerase I; settings: purified from calf thymus; cited from earlier work
[5] = tested on: human patients with cancer; settings: Phase I and Phase II human trials; cited from earlier work
[6] = Solubility of camptothecin in various solvents; format: physicochemical; settings: for solubility: read-out: Solubility, Concentration
[7] = greater than carboxylate form; cited from earlier work
[8] = animals; cited from earlier work
[9] = tested on: human patients; settings: cited from earlier work
[10] = tested on: topoisomerase I-DNA cleavable complex; settings: cited from earlier work
[11] = tested on: topoisomerase II; settings: cited from earlier work
[12] = tested on: L1210 cells; settings: cited from earlier work
[13] = tested on: Topoisomerase I; settings: purified from human colon carcinoma cells; cited from earlier work
[14] = tested on: advanced gastrointestinal cancer; settings: cited from earlier work
[15] = tested on: mice; settings: more toxic than SCPT; cited from earlier work
[16] = tested on: DNA strand breaks; settings: cited from earlier work
[17] = tested on: malignant melanoma; settings: cited from earlier work
[18] = cited from earlier work; remark: listed apart in the source
[19] = tested on: human patients; settings: cited from earlier work; remark: listed apart in the source
[20] = 90-360 mg/m^2 every 2 weeks, fifteen patients
[21] = 15 mg/m^2 × 5, 9 patients treated
[22] = 17 mg/m^2 × 5, 5 patients treated
[23] = 20 mg/m^2 × 5, 10 patients treated
[24] = 5-Day course (27 patients), 4 wks
[25] = 5-Day course (27 patients), 8 wks
[26] = 5-Day course (27 patients), 12 wks
[27] = single dose 110 mg/m^2, 2 patients treated
[28] = single dose 120 mg/m^2, 7 patients treated
[29] = single dose 180 mg/m^2, 9 patients treated
[30] = single-dose method (34 patients), 3 wks
[31] = single-dose method (34 patients), 6 wks
[32] = single-dose method (34 patients), 9 wks
[33] = single-dose method (34 patients), 12 wks

For `CCc1c2c(nc3ccc(O)cc13)-c1cc3c(c(=O)n1C2)COC(=O)[C@]3(O)CC` [7-ethyl-10-hydroxy camptothecin], the Water solubility ([1]; water) is given as “less than 5 micrograms per milliliter of water”.

For `CCC1(O)C(=O)OCc2c1cc1n(c2=O)Cc2cc3cc4c(cc3nc2-1)OCCO4` (stereo not drawn) [10,11-ethylenedioxy-camptothecin, 10,11-ethylenedioxy camptothecin], the Water solubility ([1]; water) is listed as “less than 5 micrograms per milliliter of water”.

In the case of `CCC1(O)C(=O)OCc2c1cc1n(c2=O)Cc2cc3cc4c(cc3nc2-1)OCO4` (stereo not drawn) [10,11-Methylenedioxy camptothecin, 10,11-methylenedioxy camptothecin], the Water solubility ([1]; water) is listed as “less than 5 micrograms per milliliter of water”.

In the case of `CN1CCCC1=O` [NMP, N-methyl-2-pyrrolidinone], the “Chemical reactivity of NMP with HLCD” value [2] is reported as “inert with respect to undesirable chemical reactions with HLCD; also recorded: chemically inert with respect to poorly water soluble camptothecins”.

For `COc1cc([C@@H]2c3cc4c(cc3[C@@H](O[C@@H]3O[C@@H]5CO[C@@H](C)O[C@H]5[C@H](O)[C@H]3O)[C@H]3COC(=O)[C@H]23)OCO4)cc(OC)c1O` [etoposide], the “Bioavailability following oral administration” value [3] is listed as “substantially equivalent to that achieved by intravenous administration”.

For `CC[C@@]1(O)C(=O)OCc2c1cc1n(c2=O)Cc2cc3ccccc3nc2-1` [Camptothecin, camptothecin], the “Inhibition of topoisomerase I” value [4] is listed as “inhibited”, the “Toxicity in early trials” value [5] is listed as “unpredictable myelosuppression and hemorrhagic cystitis” and the “Solubility, Concentration” value ([6]; N-Methyl-2-pyrrolidinone (NMP)) is listed as 15000 to 20000 µg/mL. It also gave a solubility ([6]; benzyl alcohol, organic solvent or mixture, Benzyl alcohol) of 1670 µg/mL (≈ 4810 µM), a solubility ([6]; dimethylacetamide, organic solvent or mixture, Dimethylacetamide) of 5000 µg/mL (≈ 14400 µM) and a solubility ([6]; dimethylisosorbide, organic solvent or mixture, Dimethylisosorbide) of 928 µg/mL (≈ 2660 µM). It also gave a solubility ([6]; ethanol, organic solvent or mixture, Ethanol) of 51 µg/mL (≈ 146 µM), a solubility ([6]; milli-q water) of 0.2 µg/mL (≈ 0.574 µM) and a solubility ([6]; n-methyl-2-pyrrolidinone (nmp), organic solvent or mixture, N-Methyl-2-pyrrolidinone (NMP)) of over 15000 µg/mL. For the same compound, the solubility ([6]; peg 300, organic solvent or mixture, PEG 300) was 706 µg/mL (≈ 2030 µM), the solubility ([6]; propylene glycol, organic solvent or mixture, Propylene glycol) was 281 µg/mL (≈ 807 µM) and the “Anti-tumor activity of lactone relative to carboxylate form” value [7] was “greater than 10 fold”. For the same compound, the Water solubility ([1]; lactone form, pH of 2 to 6) was “less than 5 micrograms in one milliliter o”, the Transport into bile [8] was “extremely active transport of camptothecin into bile” and the Renal excretion ([9]; human, in vivo) was “excreted unchanged by the kidneys”. The “Stabilization of the topoisomerase I cleavable complex, reversibility” value [10] was “readily reversible”, the “Effect on topoisomerase II” value [11] was “no effect on topoisomerase II” and the “Protein-free DNA breaks” value [12] was “an increase in unexplained protein-free breaks”. The “Inhibition of topoisomerase I” value [13] was “inhibited”, the “Clinical value in gastrointestinal cancer (conclusion)” value ([14]; in vivo) was “a drug of protean and unpredictable toxicity that has no clinical value in the management of gastrointestinal cancer” and the “Toxicity of lactone form relative to SCPT” value [15] was 10 fold. The “Protein-associated DNA single-strand breaks” value [16] was “induces protein-associated DNA single-strand breaks” and the “Protein linkage of DNA strand breaks” value ([16]; in vitro cells) was “Virtually all of the DNA strand breaks observed in vitro cells treated with camptothecin are protein linked”.

In the case of `CCc1c2c(nc3ccccc13)-c1cc3c(c(=O)n1C2)COC(=O)[C@]3(O)CC` [7-ethyl camptothecin], the Water solubility ([1]; water) is given as “less than 5 micrograms per milliliter of water”.

In the case of `CC[C@@](O)(C(=O)O)c1cc2n(c(=O)c1CO)Cc1cc3ccccc3nc1-2` [SCPT], the “50% or greater decrease in tumor diameter” value [17, 20] is given as “None of the patients had a 50% or greater decrease in tumor diameter”, the Transient tumor regression [17, 20] is given as “Less pronounced transient tumor regression was noted in three patients” and the “Disease in remaining patients” value ([17]; 90-360 mg/m^2 every 2 weeks) is given as “no change or progression in their disease”. For the same compound, the Alopecia ([17]; fifteen patients) was 8 patients, the Diarrhea ([17]; fifteen patients) was 3 patients and the Hemorrhagic cystitis ([17]; fifteen patients) was 1 patients. The Myelosuppression ([17]; fifteen patients) was 11 patients, the Nausea and vomiting ([17]; fifteen patients) was 9 patients and the “Antitumor activity in early trials” value [5] was “lack of consistent antitumor activity”. The “Toxicity in early trials” value [5] was “unpredictable and severe myelosuppression,gastrointestinal toxicity, hemorrhagic cystitis, and alopecia”, the “Bladder toxicity, dose limiting” value ([9]; 20 to 30 mg/m^2) was “dose limiting in three patients” and the “Bladder toxicity, additional patients” value ([9]; 44 and 30 mg/m^2) was “two additional patients”. The “Leukopenia, incidence” value ([9]; daily treatment, total dose of 100 mg/m^2) was “four of six patients”, the “Leukopenia, duration” value ([9]; daily vs weekly treatment) was “more prolonged after daily treatment than after weekly treatment” and the Leukopenia ([9]; dose-limiting toxic effect) was “Reversible leukopenia was the major dose-limiting toxic effect”. For the same compound, the Clinical benefit ([9]; eight patients with measurable disease, 5-day courses at dose levels associated with toxicity) was “No clinical benefit was observed”, the Clinical responses ([9]; weekly courses, evaluable patients) was “two of ten patients” and the “Plasma camptothecin levels, relation to dose” value ([18]; 24 hours after SCPT, once daily×5, 6.5-20 mg/m^2/day) was “plasma camptothecin levels have little relation to the dose given”. The Severe toxic effects ([18]; patients with obvious renal disease excluded) was “Severe toxic effects including cystitis occurred”, the “Mean urine recovery of camptothecin, excluding patients with impaired urinary excretion” value ([19]; 5 patients with impaired urinary excretion excluded, i.v., 2880 min) was 22.8% and the “Urinary appearance of unmetabolized camptothecin” value ([19]; after i.v. drug administration) was “unmetabolized camptothecin in high concentrations rapidly appeared in the urine”. The “Mean urine recovery of camptothecin” value ([19]; first 48 hours, i.v.) was 17.4%, the “Urine recovery of camptothecin (range)” value ([19]; first 48 hours, i.v.) was 3.6-38.9% and the “Time course of urinary drug excretion” value ([19]; i.v.) was “most of the drug excretion occurring in the initial 12 hours”. For the same compound, the Sterile hemorrhagic cystitis ([19]; moderately dehydrated patients) was 3 patients, the “No. of patients with Cystitis” value ([14]; 11 mg/m^2 × 5, 2 patients treated) was 1 patients and the “No. of patients with Cystitis” value [14, 21] was 4 patients. The “No. of patients with Diarrhea” value [14, 21] was 1 patients, the “No. of patients with Cystitis” value [14, 22] was 2 patients and the “No. of patients with Diarrhea” value [14, 22] was 4 patients. For the same compound, the “No. of patients with Cystitis” value [14, 23] was 6 patients, the “No. of patients with Diarrhea” value [14, 23] was 4 patients and the “No. of patients with Diarrhea” value ([14]; 22 mg/m^2 × 5, 1 patient treated) was 1 patients. The “Improvement at 3 months” value ([14]; 3 months, 61 patients) was “none showed improvement at 3 months”, the “Objective Responses: Improved” value [14, 24] was 1 patients and the “Objective Responses: Stable” value [14, 24] was 12 patients. The “Objective Responses: Worse” value [14, 24] was 14 patients, the “Objective Responses: Stable” value [14, 25] was 7 patients and the “Objective Responses: Worse” value [14, 25] was 20 patients. For the same compound, the “Objective Responses: Stable” value [14, 26] was 6 patients, the “Objective Responses: Worse” value [14, 26] was 21 patients and the “Cystitis (% of 27 patients)” value ([14]; 5-Day course, P < 0.05) was 48%. The “Cystitis (% of 34 patients)” value ([14]; Single dose) was 24%, the Partial objective improvement ([14]; after 2 months (8 or 9 weeks), 61 patients) was “only two of their 61 patients” and the “Patients with 25%-50% response” value ([14]; at 3 wks only) was 3 patients. For the same compound, the “Diarrhea, severity and persistence” value ([14]; higher doses) was “could be quite severe to the point of fecal incontinence and persistent for as long as 4 weeks”, the “Onset of cystitis after treatment” value ([14]; in vivo) was 7 to 10 days and the “Severity of toxicity by schedule” value ([14]; prolonged (5-day) vs single-dose schedule at a given total dose) was “more prolonged schedule produced more severe toxicity at a given total dose level”. For the same compound, the “No. of patients with Cystitis” value ([14]; single dose 90 mg/m^2, 10 patients treated) was 1 patients, the “No. of patients with Cystitis” value ([14]; single dose 100 mg/m^2, 6 patients treated) was 2 patients and the “No. of patients with Cystitis” value [14, 27] was 1 patients. For the same compound, the “No. of patients with Diarrhea” value [14, 27] was 1 patients, the “No. of patients with Cystitis” value [14, 28] was 2 patients and the “No. of patients with Diarrhea” value [14, 28] was 4 patients. For the same compound, the “No. of patients with Cystitis” value [14, 29] was 3 patients, the “No. of patients with Diarrhea” value [14, 29] was 2 patients and the “Objective Responses: Improved” value [14, 30] was 4 patients. For the same compound, the “Objective Responses: Stable” value [14, 30] was 17 patients, the “Objective Responses: Worse” value [14, 30] was 13 patients and the “Objective Responses: Improved” value [14, 31] was 2 patients. For the same compound, the “Objective Responses: Stable” value [14, 31] was 1i, the “Objective Responses: Worse” value [14, 31] was 21 patients and the “Objective Responses: Improved” value [14, 32] was 2 patients. For the same compound, the “Objective Responses: Stable” value [14, 32] was 8 patients, the “Objective Responses: Worse” value [14, 32] was 24 patients and the “Objective Responses: Stable” value [14, 33] was 6 patients. For the same compound, the “Objective Responses: Worse” value [14, 33] was 28 patients.

— patent US5726181A, “Formulations and compositions of poorly water soluble camptothecin derivatives” (BioNumerik Pharmaceuticals, Inc., priority 1995, dated 1998)
